Measurements: US10568876B2, “Tetrahydroisoquinoline derivatives useful as inhibitors of diacylglyceride O-acyltransferase 2” (Merck Sharp & Dohme Corp., priority 2014, dated 2020)

Molecular target: hDGAT2 (Homo sapiens (Human), UniProt Q96PD7)
Assay: DGAT2 Enzymatic Activity Assay
Format: biochemical
Conditions: hDGAT2 Sf-9 membrane prep; 25 μM diolein, 10 μM oleoyl-CoA; triolein product by LC/MS/MS; read-out: IC50 values for inhibition of DGAT2
Method in brief: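 Membranes from Sf-9 cells expressing untagged hDGAT2 (10 ng/μL) incubated at room temperature with 25 μM diolein and 10 μM oleoyl-CoA in 100 mM Tris pH 7.0, 20 mM MgCl2, 5% ethanol. Triolein product quantified by LC/MS/MS against spiked internal standard; IC50 from 4-parameter sigmoidal fit.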

hDGAT2, sequence (Q96PD7 whole entry): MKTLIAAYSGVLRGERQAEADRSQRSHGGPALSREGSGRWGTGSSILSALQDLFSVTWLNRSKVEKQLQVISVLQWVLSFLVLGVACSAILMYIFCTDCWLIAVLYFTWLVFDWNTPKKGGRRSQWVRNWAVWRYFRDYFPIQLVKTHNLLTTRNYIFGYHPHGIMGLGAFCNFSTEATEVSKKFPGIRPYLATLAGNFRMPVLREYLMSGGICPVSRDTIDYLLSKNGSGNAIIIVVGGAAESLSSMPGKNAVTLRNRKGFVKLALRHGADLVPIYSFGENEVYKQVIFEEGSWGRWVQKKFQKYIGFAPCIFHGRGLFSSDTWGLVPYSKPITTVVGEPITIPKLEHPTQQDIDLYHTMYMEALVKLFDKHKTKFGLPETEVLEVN

Row | Structure (SMILES) | IC50
1 | Cc1noc([C@@H]2C[C@H]2C(=O)NCc2ccc(-c3cccc(OC(F)(F)F)c3)c3c2CN(Cc2noc(C4CC4)n2)CC3)n1 (relative stereo) [Example 101, (trans)-N-((2-((5-cyclopropyl-1,2,4-oxadiazol-3-yl)methyl)-5-(3-(trifluoromethoxy)phenyl)-1,2,3,4-tetrahydroisoquinolin-8-yl)methyl)-2-(3-methyl-1,2,4-oxadiazol-5-yl)cyclopropanecarboxamide] | 4500 nM
2 | Cc1noc([C@@H]2C[C@H]2C(=O)NCc2ccc(-c3cccc(OC(F)(F)F)c3)c3c2CN(CC(=O)N2COCC2(C)C)CC3)n1 (relative stereo) [Example 103, (trans)-N-((2-(2-(4,4-dimethyloxazolidin-3-yl)-2-oxoethyl)-5-(3-(trifluoromethoxy)phenyl)-1,2,3,4-tetrahydroisoquinolin-8-yl)methyl)-2-(3-methyl-1,2,4-oxadiazol-5-yl)cyclopropanecarboxamide] | 1760 nM
3 | Cc1noc([C@@H]2C[C@H]2C(=O)NCc2ccc(-c3cccc(OC(F)(F)F)c3)c3c2CN(Cc2noc(C(C)C)n2)CC3)n1 (relative stereo) [Example 104, (trans)-N-((2-((5-isopropyl-1,2,4-oxadiazol-3-yl)methyl)-5-(3-(trifluoromethoxy)phenyl)-1,2,3,4-tetrahydroisoquinolin-8-yl)methyl)-2-(3-methyl-1,2,4-oxadiazol-5-yl)cyclopropanecarboxamide] | 5090 nM
4 | Cc1noc([C@@H]2C[C@H]2C(=O)NCc2ccc(-c3cccc(OC(F)(F)F)c3)c3c2CN(Cc2ccncn2)CC3)n1 (relative stereo) [Example 105, (trans)-2-(3-methyl-1,2,4-oxadiazol-5-yl)-N-((2-(pyrimidin-4-ylmethyl)-5-(3-(trifluoromethoxy)phenyl)-1,2,3,4-tetrahydroisoquinolin-8-yl)methyl)cyclopropanecarboxamide] | 2610 nM
5 | Cc1noc([C@@H]2C[C@H]2C(=O)NCc2ccc(-c3cccc(OC(F)(F)F)c3)c3c2CN(Cc2scnc2C)CC3)n1 (relative stereo) [Example 106, (trans)-2-(3-methyl-1,2,4-oxadiazol-5-yl)-N-((2-((4-methylthiazol-5-yl)methyl)-5-(3-(trifluoromethoxy)phenyl)-1,2,3,4-tetrahydroisoquinolin-8-yl)methyl)cyclopropanecarboxamide] | 1840 nM
6 | Cc1noc([C@@H]2C[C@H]2C(=O)NCc2ccc(-c3cccc(OC(F)(F)F)c3)c3c2CN(Cc2cnccn2)CC3)n1 (relative stereo) [Example 107, (trans)-2-(3-methyl-1,2,4-oxadiazol-5-yl)-N-((2-(pyrazin-2-ylmethyl)-5-(3-(trifluoromethoxy)phenyl)-1,2,3,4-tetrahydroisoquinolin-8-yl)methyl)cyclopropanecarboxamide] | 4770 nM
7 | COc1cccc(-c2ccc(CNC(=O)[C@H]3C[C@@H]3c3ccccc3)c3c2CCN(c2nccc(C(F)(F)F)n2)C3)c1 (relative stereo) [Example 109, (trans)-N-((5-(3-methoxyphenyl)-2-(4-(trifluoromethyl)pyrimidin-2-yl)-1,2,3,4-tetrahydroisoquinolin-8-yl)methyl)-2-phenylcyclopropanecarboxamide] | 4040 nM
8 | COc1cccc(-c2ccc(CNC(=O)[C@@H]3C[C@H]3c3ccccc3)c3c2CCN(C(=O)c2cc(F)cc(F)c2)C3)c1 (relative stereo) [Example 111, (trans)-N-((2-(3,5-difluorobenzoyl)-5-(3-methoxyphenyl)-1,2,3,4-tetrahydroisoquinolin-8-yl)methyl)-2-phenylcyclopropanecarboxamide] | 971 nM
9 | COC[C@H]1CCC[C@H]1NC(=O)CN1CCc2c(-c3cccc(OC(F)(F)F)c3)ccc(CNC(=O)C3CC3c3nc(C)no3)c2C1 (stereo in doubt) [Example 86, N-((2-(2-(((trans)-2-(methoxymethyl)cyclopentyl)amino)-2-oxoethyl)-5-(3-(trifluoromethoxy)phenyl)-1,2,3,4-tetrahydroisoquinolin-8-yl)methyl)-2-(3-methyl-1,2,4-oxadiazol-5-yl)cyclopropanecarboxamide] | 2290 nM
10 | Cc1noc([C@H]2C[C@@H]2C(=O)NCc2ccc(-c3cccc(C(F)(F)F)c3)c3c2CN(C(=O)C(C)(C)O)CC3)n1 (stereo in doubt) [Example 116, (trans)-N-((2-(2-hydroxy-2-methylpropanoyl)-5-(3-(trifluoromethyl)phenyl)-1,2,3,4-tetrahydroisoquinolin-8-yl)methyl)-2-(3-methyl-1,2,4-oxadiazol-5-yl)cyclopropanecarboxamide] | 1580 nM
11 | Cc1noc([C@@H]2C[C@H]2C(=O)NCc2ccc(-c3cccc(C(F)(F)F)c3)c3c2CN(C(=O)C(C)(C)O)CC3)n1 (stereo in doubt) [Example 120, (trans)-N-((2-(2-hydroxy-2-methylpropanoyl)-5-(3-(trifluoromethyl)phenyl)-1,2,3,4-tetrahydroisoquinolin-8-yl)methyl)-2-(3-methyl-1,2,4-oxadiazol-5-yl)cyclopropanecarboxamide] | 1580 nM
12 | Cc1noc(C2CC2C(=O)NCc2ccc(-c3cccc(OC(F)(F)F)c3)c3c2CN(C(=O)NC(C)(C)C)CC3)n1 (stereo not drawn) [Example 1, N-(tert-butyl)-8-(((trans)-2-(3-methyl-1,2,4-oxadiazol-5-yl)cyclopropanecarboxamide)methyl)-5-(3-(trifluoromethoxy)phenyl)-3,4-dihydroisoquinoline-2(1H)-carboxamide] | 3.6 nM
13 | COC(=O)c1cccc(-c2ccc(CNC(=O)C3CC3c3nc(C)no3)c3c2CCN(C(=O)NC(C)(C)C)C3)c1 (stereo not drawn) [Example 7, methyl 3-(2-(tert-butylcarbamoyl)-8-((2-(3-methyl-1,2,4-oxadiazol-5-yl)cyclopropanecarboxamido)methyl)-1,2,3,4-tetrahydroisoquinolin-5-yl)benzoate] | 15.5 nM
14 | COC(=O)c1cccc(-c2ccc(CNC(=O)C3CC34CCCCC4)c3c2CCN(C(=O)NC(C)(C)C)C3)c1 (stereo not drawn) [Example 17, methyl 3-(2-(tert-butylcarbamoyl)-8-((spiro[2.5]octane-1-carboxamido)methyl)-1,2,3,4-tetrahydroisoquinolin-5-yl)benzoate] | 2.2 nM
15 | COC(=O)c1cccc(-c2ccc(CNC(=O)C3CC3c3ccccc3)c3c2CCN(C(=O)NC2CC(F)(F)C2)C3)c1 (stereo not drawn) [Example 56, methyl 3-(2-((3,3-difluorocyclobutyl)carbamoyl)-8-((2-phenylcyclopropanecarboxamido)methyl)-1,2,3,4-tetrahydroisoquinolin-5-yl) benzoate] | 9.88 nM

Other lines, results leading:

Row | IC50 | Structure (SMILES)
16 | 887 nM | COc1cccc(-c2ccc(CNC(=O)[C@@H]3C[C@H]3c3ccccc3)c3c2CCN(C(=O)C(C)(C)C)C3)c1 (relative stereo) [Example 113, (trans)-N-((5-(3-methoxyphenyl)-2-pivaloyl-1,2,3,4-tetrahydroisoquinolin-8-yl)methyl)-2-phenylcyclopropanecarboxamide]
17 | 831 nM | COc1cccc(-c2ccc(CNC(=O)[C@@H]3C[C@H]3c3ccccc3)c3c2CCN(C(=O)C(C)(C)O)C3)c1 (relative stereo) [Example 117, (trans)-N-((2-(2-hydroxy-2-methylpropanoyl)-5-(3-methoxyphenyl)-1,2,3,4-tetrahydroisoquinolin-8-yl)methyl)-2-phenylcyclopropanecarboxamide]
18 | 1540 nM | COc1cccc(-c2ccc(CNC(=O)[C@@H]3C[C@H]3c3ccccc3)c3c2CCN(C(=O)C(O)C(F)(F)F)C3)c1 (relative stereo) [Example 119, (trans)-N-((5-(3-methoxyphenyl)-2-(3,3,3-trifluoro-2-hydroxypropanoyl)-1,2,3,4-tetrahydroisoquinolin-8-yl)methyl)-2-phenylcyclopropanecarboxamide]
19 | 11.7 nM | CC(C)(C)NC(=O)N1CCc2c(-c3cccc(OC(F)(F)F)c3)ccc(CNC(=O)C3CC3c3cccnc3)c2C1 (stereo not drawn) [Example 4, N-(tert-butyl)-8-((2-(pyridin-3-yl)cyclopropanecarboxamido)methyl)-5-(3-(trifluoromethoxy)phenyl)-3,4-dihydroisoquinoline-2(1H)-carboxamide]
20 | 6.1 nM | COc1cccc(-c2ccc(CNC(=O)C3CC3c3cccnc3)c3c2CCN(C(=O)NC(C)(C)C)C3)c1 (stereo not drawn) [Example 13, N-(tert-butyl)-5-(3-methoxyphenyl)-8-((2-(pyridin-3-yl)cyclopropanecarboxamido)methyl)-3,4-dihydroisoquinoline-2(1H)-carboxamide]
21 | 15.5 nM | COC(=O)c1cccc(-c2ccc(CNC(=O)C3CC3c3nc(C)no3)c3c2CCN(C(=O)NC(C)(C)C)C3)c1 (stereo not drawn) [Example 21, methyl 3-(2-(tert-butylcarbamoyl)-8-((2-(3-methyl-1,2,4-oxadiazol-5-yl)cyclopropanecarboxamido)methyl)-1,2,3,4-tetrahydroisoquinolin-5-yl)benzoate]
22 | 992 nM | CC(C)(C)NC(=O)N1CCc2c(-c3cncc(CO)c3)ccc(CNC(=O)C3C[C@H]3c3ccccc3)c2C1 (stereo partly drawn) [Example 28, N-(tert-butyl)-5-(5-(hydroxymethyl)pyridin-3-yl)-8-(((trans)-2-phenylcyclopropanrcarboxamido)methyl)-3,4-dihydroisoquinoline-2(1H)-carboxamide]
23 | 5.78 nM | CC(C)(C)NC(=O)N1CCc2c(-c3cccc(-c4ncon4)c3)ccc(CNC(=O)C3C[C@H]3c3ccccc3)c2C1 (stereo partly drawn) [Example 51, 5-(3-(1,2,4-oxadiazol-3-yl)phenyl)-N-(tert-butyI)-8-(((trans)-2-phenylcyclopropanecarboxamido)methyl)-3,4-dihydroisoquinoline-2(1H)-carboxamide]
24 | 87 nM | COc1cccc(-c2ccc(CNC(=O)C3CC3c3ccccc3)c3c2CCN(C(=O)NC2CC(F)(F)C2)C3)c1 (stereo not drawn) [Example 57, N-(3,3-difluorocyclobutyl)-5-(3-methoxyphenyl)-8-((2-phenylcyclopropanecarboxamido)methyl)-3,4-dihydroisoquinoline-2(1H)-carboxamide]
